From the NIST ThermoML archive (doi:10.1021/je0301489)

Experiments:
[1] = xn = mol fraction of the nth substance listed; settings: 101.33 kPa, Liquid
[2] = refractive index (Na D-line) (dimensionless); xn = mol fraction of the nth substance listed; settings: 101.33 kPa, Liquid

CCOC(=O)C(=O)OCC [diethyl ethanedioate] + C1COCCO1
Settings	mass density, 298.15 K [kg/m3]	mass density, 303.15 K [kg/m3]	mass density, 308.15 K [kg/m3]	refractive index, 298.15 K	refractive index, 303.15 K	refractive index, 308.15 K	speed of sound, 298.15 K [m/s]	viscosity, 298.15 K [mPa·s]	viscosity, 303.15 K [mPa·s]	viscosity, 308.15 K [mPa·s]
[1], x2 = 0	1072.9	1066.2	1060.8	–	–	–	1276	1.759	1.581	1.437
[1], x2 = 0.1094	1070.9	1064.2	1058.1	–	–	–	1284	1.69	1.539	1.388
[1], x2 = 0.2069	1067.5	1061.4	1055.3	–	–	–	1292	1.631	1.487	1.343
[1], x2 = 0.3098	1064.4	1058.3	1052.1	–	–	–	1301	1.566	1.428	1.291
[1], x2 = 0.4009	1061.1	1055	1048.9	–	–	–	1310	1.505	1.375	1.245
[1], x2 = 0.4975	1057.3	1051.1	1045	–	–	–	1320	1.44	1.316	1.193
[1], x2 = 0.5978	1052.8	1046.7	1040.6	–	–	–	1329	1.375	1.259	1.143
[1], x2 = 0.7008	1047.7	1041.5	1035.4	–	–	–	1337	1.312	1.203	1.094
[1], x2 = 0.7971	1042.1	1036.1	1029.9	–	–	–	1343	1.259	1.157	1.055
[1], x2 = 0.8976	1035.5	1029.5	1023.6	–	–	–	1347	1.206	1.111	1.016
[2], x2 = 0	–	–	–	1.4084	1.406	1.4034	–	–	–	–
[2], x2 = 0.1094	–	–	–	1.4092	1.4068	1.4043	–	–	–	–
[2], x2 = 0.2069	–	–	–	1.4101	1.4077	1.4052	–	–	–	–
[2], x2 = 0.3098	–	–	–	1.4112	1.4087	1.4062	–	–	–	–
[2], x2 = 0.4009	–	–	–	1.4119	1.4094	1.407	–	–	–	–
[2], x2 = 0.4975	–	–	–	1.4129	1.4106	1.4084	–	–	–	–
[2], x2 = 0.5978	–	–	–	1.4144	1.4118	1.409	–	–	–	–
[2], x2 = 0.7008	–	–	–	1.4157	1.4132	1.4106	–	–	–	–
[2], x2 = 0.7971	–	–	–	1.417	1.4145	1.412	–	–	–	–
[2], x2 = 0.8976	–	–	–	1.4183	1.4158	1.4132	–	–	–	–

CCOC(=O)CC(C)=O [ethyl 3-oxobutanoate] + C1COCCO1
Settings	mass density, 298.15 K [kg/m3]	mass density, 303.15 K [kg/m3]	mass density, 308.15 K [kg/m3]	refractive index, 298.15 K	refractive index, 303.15 K	refractive index, 308.15 K	speed of sound, 298.15 K [m/s]	viscosity, 298.15 K [mPa·s]	viscosity, 303.15 K [mPa·s]	viscosity, 308.15 K [mPa·s]
[1], x2 = 0	1020.9	1014.9	1010.2	–	–	–	1331	1.48	1.339	1.239
[1], x2 = 0.1134	1021.5	1016	1010.6	–	–	–	1335	1.425	1.311	1.197
[1], x2 = 0.2058	1022.1	1016.5	1011	–	–	–	1338	1.386	1.276	1.165
[1], x2 = 0.3054	1022.7	1017.1	1011.4	–	–	–	1340	1.346	1.24	1.133
[1], x2 = 0.4008	1023.3	1017.6	1011.9	–	–	–	1342	1.309	1.205	1.102
[1], x2 = 0.4986	1024	1018.2	1012.4	–	–	–	1344	1.272	1.172	1.072
[1], x2 = 0.5955	1024.7	1018.8	1013	–	–	–	1345	1.237	1.14	1.044
[1], x2 = 0.6972	1025.4	1019.5	1013.7	–	–	–	1346	1.208	1.115	1.021
[1], x2 = 0.7971	1026.1	1020.3	1014.4	–	–	–	1346	1.182	1.091	1
[1], x2 = 0.8964	1026.8	1021	1015.2	–	–	–	1347	1.166	1.077	0.988
[2], x2 = 0	–	–	–	1.4166	1.4145	1.412	–	–	–	–
[2], x2 = 0.1134	–	–	–	1.417	1.4146	1.4122	–	–	–	–
[2], x2 = 0.2058	–	–	–	1.4171	1.4148	1.4124	–	–	–	–
[2], x2 = 0.3054	–	–	–	1.4174	1.415	1.4126	–	–	–	–
[2], x2 = 0.4008	–	–	–	1.4176	1.4154	1.413	–	–	–	–
[2], x2 = 0.4986	–	–	–	1.4178	1.4155	1.413	–	–	–	–
[2], x2 = 0.5955	–	–	–	1.418	1.416	1.4132	–	–	–	–
[2], x2 = 0.6972	–	–	–	1.4186	1.4162	1.4137	–	–	–	–
[2], x2 = 0.7971	–	–	–	1.4192	1.4166	1.414	–	–	–	–
[2], x2 = 0.8964	–	–	–	1.4195	1.4169	1.4144	–	–	–	–
